Results as given in patent EP0435222A2, “Aminopyridinylmethanols and aminomethylpyridinamines and related compounds, a process for their preparation and their use as medicaments” (HOECHST-ROUSSEL PHARMACEUTICALS INCORPORATED, priority 1989, dated 1991).
Where a name gives a salt, the structure may show the parent alone. Read-outs that look alike come from different tables or passages of the source.

Assays:
[1] = tested on: Scopolamine Induced Memory Deficit; test: Dark Avoidance Assay (reversal of scopolamine-induced memory deficit); type: in vivo, mice; conditions: for responders at 0.3 mg/kg: Dose 0.30 mg/kg of body weight; for responders at 0.16 mg/kg: Dose 0.16 mg/kg of body weight
Procedure: In this assay mice are tested for their ability to remember an unpleasant stimulus for a period of 24 hours. A mouse is placed in a chamber that contains a dark compartment: a strong incandescent light drives it to the dark compartment, where an electric shock is administered through metal plates on the floor. The animal is removed from the testing apparatus and tested again, 24 hours later, for the ability to remember the electric shock. If scopolamine, an anticholinergic that is known to cause memory impairment, is administered before an animal's initial exposure to the test chamber, the animal re-enters the dark compartment shortly after being placed in the test chamber 24 hours later. This effect of scopolamine is blocked by an active test compound, resulting in a greater interval before re-entry into the dark compartment. The results for an active compound are expressed as the percent of a group of animals in which the effect of scopolamine is blocked, as manifested by an increased interval between being placed in the test chamber and re-entering the dark compartment.

[2] = tested on: 2-phenyl-1,4-benzoquinone-induced writhing; test: Inhibition of Phenylquinone-Induced Writhing in Mice (PQW); type: in vivo, male CD-1 Charles River mice
Procedure: A 0.125% concentration of phenyl-p-benzoquinone in a 5% aqueous solution of ethyl alcohol is administered to mice (10 mL/kg, ip). This produces a characteristic "writhe" which is defined as an inward rotation of one or more feet with twisting and turning of the trunk, drawing in of the abdominal wall, lordosis, and arching of the back. A total of 28 male CD-1 Charles River mice (18-30 g) are employed for a time-response. Animals receive food and water ad libitum during their stay in the animal quarters prior to testing. Compounds are tested at 20 mg/kg, sc and are prepared with distilled water, and if insoluble one drop of Tween-80, a surfactant is added. Compounds are administered in a dosage volume of 10 mL/kg.
Twenty mice (five per group) are administered the test compound at various pretreat time (e.g., 15,30,45, and 60 min) prior to phenylquinone injection. Control animals (two per group) receive an equal volume of vehicle. After the administration of phenylquinone, the mice are placed separately into 1-L beakers, and 5 min are allowed to elapse. The mice are then observed for a period of 10 min, and the number of writhes is recorded for each animal. The formula for computing percent inhibition is [drawing 20]
The time period with the maximum percent of inhibition is considered the peak time.

[3] = tested on: naja naja (snake venom) phospholipase A₂-induced paw edema; test: Phospholipase A₂-induced Paw Edema (PIPE); type: in vivo, male Wistar rats; conditions: for PIPE* (0.1 M): difference in edema vs. control, 0.1 M test compound injected with PLA₂ (3 units/paw), subplantar, rat hindpaw, two hours post administration
Procedure: The ability of compounds to prevent naja naja (snake venom) phospholipase A₂-induced paw edema in male Wistar rats (100-125 g) was measured. PLA₂ (3 units/paw) alone or with 0.1 M of the test compound was injected in the subplantar region of the rat left hindpaw. Immediately subsequent to the injection and at two hours post administration the paw was immersed in a mercury bath, and paw displacement was measured on a recorder via a transducer (Standard: hydrocortisone ED₅₀=0.46 M). See Giessler, A.J. et al., Agents and Actions, Vol. 10, Trends in Inflammation Research (1981), p. 195.

porcine pancreatic PLA₂ = target: T1, porcine pancreatic PLA₂ (Sus scrofa, UniProt P00592); test: In Vitro Phospholipase A₂ Assay (PLA₂); type: biochemical
T1 construct: porcine pancreatic PLA₂ (3.2 units); from tissue; host or cells: porcine pancreas
T1 sequence (P00592 23-146): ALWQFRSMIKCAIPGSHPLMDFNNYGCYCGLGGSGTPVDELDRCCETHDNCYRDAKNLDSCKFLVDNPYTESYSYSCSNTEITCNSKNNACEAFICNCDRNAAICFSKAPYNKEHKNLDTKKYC
Procedure: The ability of a compound to modulate PLA₂ activity (cleavage of ¹⁴C-dipalmitoyl phosphotidylcholine at the 2-position to ¹⁴C-palmitic acid) was quantitated in this assay. The reaction mixture contained Tris buffer (25mM), pH 8.0, calcium chloride (2.0 mM), bovine serum albumin (0.5 mg), dipalmitoyl phosphotidylcholine (8x10⁻⁵M), (¹⁴C-palmitoyl)dipalmitoyl phosphotidylcholine (6x10³ cpm), porcine pancreatic PLA₂ (3.2 units) and the test compound. The reaction was run at 37°C in a shaking incubator. The reaction was quenched and an internal standard was added in order to determine sample recovery. […] See Feyen, J.H.M., et al., Journal of Chromatography 259 (1983), pp. 338-340.

[4] = tested on: ear edema induced by topical application of TPA (phorbol 12-myristate acetate); test: TPA-Induced Ear Edema (TPAEE); type: in vivo, Female Swiss Webster mice; conditions: for TPAEE (10 µg): 10 µg/ear topical, TPA 10µg/ear, ear punch weight after five hours
Procedure: The purpose of this assay was to determine the ability of a topically-applied compound to prevent ear edema induced by topical application of TPA (phorbol 12-myristate acetate). Female Swiss Webster mice topically received TPA (10µg/ear) on the right ear and vehicle on the left ear. The test compound (10 µg/ear) was applied to both ears. After five hours, the animals were sacrificed and an ear punch (4 mm) was taken from each ear. The difference in right and left ear punch weights for each animal was determined to assess activity (Standard: hydrocortisone ED₅₀=47 µg/ear). See Young, J.M. et al., J. Invest. Dermatol., 80 (1983), pp. 48-52.

[5] = tested on: mouse ear edema induced by topical application of arachidonic acid; test: Arachidonic Acid-Induced Ear Edema (AAEE); type: in vivo, Female Swiss Webster mice
Procedure: The purpose of this assay was to determine the ability of a topically-applied compound to prevent mouse ear edema induced by topical application of arachidonic acid. Female Swiss Webster mice topically received vehicle or test compound (1.0 mg/ear) on both ears (10µl on outer and inner ears). After 30 minutes, the right ear of all groups received arachidonic acid (4 mg/ear) and the left ear received vehicle alone. After an additional 1 hour, the mice were sacrificed and an ear punch (4 mm) was taken from each ear. The difference in right and left ear punch weights for each animal was determined to assess activity (Standard: indomethacin ED₅₀ = 1.5 mg/ear). See Young, J.M. et al., J. Invest. Dermatol., 80, (1983), pp 48-52.

[6] = Mus musculus, sc, 24 h, s.c, read-out: % of Animals with Scopolamine Induced Memory Deficit Reversal
[7] = 0.01 M test compound, porcine pancreatic PLA₂, 37°C, pH 8.0, change vs. control, read-out: PLA2* (0.01 M)

With `CCCCNCc1cnccc1N.Cl.Cl` [3-(Butylamino)methyl-4-pyridinamine dihydrochloride] the responders at 0.3 mg/kg [1, 6] was 27% and the “PQW (% inhibition of writhing)” value ([2]; Dose 20 mg/kg, s.c.) was 62%.
In the case of `Cl.Cl.Nc1ccncc1CNCc1ccccc1` [3-[(Phenylmethylamino)methyl]-4-pyridinamine dihydrochloride], the “PIPE* (0.1 M)” value [3] is reported as -51%, the inhibition at 10000 µM (porcine pancreatic PLA₂; pH 8, read-out: PLA2* (0.01 M)) is reported as 79% and the “PQW (% inhibition of writhing)” value ([2]; Dose 20 mg/kg, s.c.) is reported as 40%.
`CC(NCc1ccccc1)c1cnccc1N` (stereo not drawn) [4-Amino-α-methyl-N-(phenylmethyl)-3-pyridinemethanamine] was tested, and the “PIPE* (0.1 M)” value [3] was -44%.
`Nc1ccncc1C(=NO)c1ccccc1F` [(4-Amino-3-pyridinyl)-(2-fluorophenyl)-methanone oxime] was tested, and the inhibition at 10000 µM (porcine pancreatic PLA₂; [7]) was 32% and the “TPAEE (10 µg)” value [4] was -56%.
`Nc1ccncc1C(N)c1ccccc1` (stereo not drawn) [(4-Amino-3-pyridinyl)benzenemethanamine dihydrochloride] was tested, and the “PIPE* (0.1 M)” value [3] was -66% and the responders at 0.3 mg/kg [1, 6] was 27%.
For `Cl.Cl.Nc1ccncc1C(N)C1CCCCC1` (stereo not drawn) [(4-Amino-3-pyridinyl)cyclohexylmethanamine dihydrochloride], the “PIPE* (0.1 M)” value [3] was -68% and the inhibition at 10000 µM (porcine pancreatic PLA₂; pH 8, read-out: PLA2* (0.01 M)) was 72%.
For `Cl.Nc1ccncc1C(=O)C1CCCCC1` [(4-Amino-3-pyridinyl)cyclohexylmethanone hydrochloride], the inhibition at 10000 µM (porcine pancreatic PLA₂; pH 8, read-out: PLA2* (0.01 M)) was 82% and the “TPAEE (10 µg)” value [4] was -53%.
In the case of `Nc1ccncc1C(=NO)C1CCCCC1` [(4-Amino-3-pyridinyl)cyclohexylmethanone oxime hydrochloride], the inhibition at 10000 µM (porcine pancreatic PLA₂; pH 8, read-out: PLA2* (0.01 M)) is reported as 99%.
`CC(NCc1ccccc1)c1cnccc1NC(=O)C(C)(C)C` (stereo not drawn) [N-[3-[1-(Phenylmethylamino)ethyl]-4-pyridinyl]-2,2-dimethylpropanamide dihydrochloride] was tested, and the inhibition at 10000 µM (porcine pancreatic PLA₂; pH 8, read-out: PLA2* (0.01 M)) was 74%.
With `CNC(=O)Oc1ccc2c(c1)[C@]1(C)CCN(C)[C@@H]1N2C` [Physostigmine, reference compound] the “% of Animals with Scopolamine Induced Memory Deficit Reversal” value ([1]; mouse, in vivo, 0.31 mg/kg) was 20%.
For `CCC(=O)O[C@](Cc1ccccc1)(c1ccccc1)[C@H](C)CN(C)C` [Propoxyphene, reference compound], the “PQW (% inhibition of writhing)” value ([2]; Dose 3.9 mg/kg, s.c. (reference compound)) was 50%.
`C[C@]12CCC(=O)C=C1CC[C@@H]1[C@@H]2[C@@H](O)C[C@@]2(C)[C@H]1CC[C@]2(O)C(=O)CO` [hydrocortisone, reference compound] gave an ED₅₀ ([3]; standard of the PIPE assay) of 0.46 M and an ED₅₀ ([4]; standard of the TPAEE assay, topical) of 47 µg/ear.
`COc1ccc2c(c1)c(CC(=O)O)c(C)n2C(=O)c1ccc(Cl)cc1` [indomethacin, reference compound] was tested, and the ED₅₀ ([5]; standard of the AAEE assay, topical) was 1.5 mg/ear.
In the case of `Nc1ccncc1C(O)c1ccccc1F` (stereo not drawn) [α-(2-Fluorophenyl)-4-amino-3-pyridinylmethanol hydrochloride], the “PIPE* (0.1 M)” value [3] is reported as -56% and the responders at 1 mg/kg ([1]; Mus musculus, sc, 24 h, Dose 1.0 mg/kg of body weight, s.c, read-out: % of Animals with Scopolamine Induced Memory Deficit Reversal) is reported as 40%.
In the case of `CC(C)(C)C(=O)Nc1ccncc1C(O)C1CCCCC1` (stereo not drawn) [α-Cyclohexyl-4-(2,2-dimethylpropionamido)-3-pyridinylmethanol], the “AAEE (1 mg)” value ([5]; 1.0 mg/ear topical, 30 minutes before arachidonic acid (4 mg/ear), ear punch weight after 1 hour) is reported as -52%, the responders at 0.16 mg/kg [1, 6] is reported as 33% and the “TPAEE (10 µg)” value [4] is reported as -55%.
In the case of `Nc1ccncc1C(O)C1CCCCC1` (stereo not drawn) [α-Cyclohexyl-4-amino-3-pyridinylmethanol hydrochloride], the responders at 0.16 mg/kg [1, 6] is reported as 50%.
With `CC(O)c1cnccc1NC(=O)C(C)(C)C` (stereo not drawn) [α-Methyl-4-(2,2-dimethylpropionamido)-3-pyridinylmethanol] the “PQW (% inhibition of writhing)” value ([2]; Dose 20 mg/kg, s.c.) was 89%.
`CC(O)c1cnccc1N` (stereo not drawn) [α-Methyl-4-amino-3-pyridinylmethanol hydrochloride] showed a responders at 1.25 mg/kg ([1]; Mus musculus, sc, 24 h, Dose 1.25 mg/kg of body weight, s.c, read-out: % of Animals with Scopolamine Induced Memory Deficit Reversal) of 33%.
For `CC(C)(C)C(=O)Nc1ccncc1C(O)c1ccccc1` (stereo not drawn) [α.Phenyl-4-(2,2-dimethylpropionamido)-3-pyridinylmethanol], the responders at 0.31 mg/kg ([1]; Mus musculus, sc, 24 h, Dose 0.31 mg/kg of body weight, s.c, read-out: % of Animals with Scopolamine Induced Memory Deficit Reversal) was 40% and the “PQW (% inhibition of writhing)” value ([2]; Dose 20 mg/kg, s.c.) was 38%.
`Nc1ccncc1C(O)c1ccccc1` (stereo not drawn) [α.Phenyl-4-amino-3-pyridinylmethanol hydrochloride] showed a responders at 0.63 mg/kg ([1]; Mus musculus, sc, 24 h, Dose 0.63 mg/kg of body weight, s.c, read-out: % of Animals with Scopolamine Induced Memory Deficit Reversal) of 27% and an inhibition at 10000 µM (porcine pancreatic PLA₂; [7]) of 87%.
